Results published in US20220034868A1, “CARDIOTOXICITY ASSESSMENT METHOD” (ZEON CORPORATION, priority 2018, published 2022).

Tested on: iCell Cardiomyocytes^2
Assay: Cardiotoxicity assessment: cell-secreted BNP before and after drug addition (Human BNP ELISA Kit), 1060R 96-well plate
Format: cell-based
Settings: Example 1; 1060R 96-well plate (surface free energy 34 mN/m), fibronectin coated; final doxorubicin 10^-6 M to 10^-14 M; 16 hours at 37° C.; n=3; FIG. 1
Excerpt: As a culture container a 96-well plate with 96 cylindrical wells each having a bottom area of 0.32 cm^2 was obtained by injection molding of ZEONOR® 1060R (ZEONOR is a registered trademark in Japan, other countries, or both) (ZEON Corporation, hydrogenated norbornene ring-opened polymer, hereinafter simply “1060R”) as an alicyclic structure-containing polymer. The culture container was sterilized with ethylene oxide gas (hereinafter, this culture container is referred to as “1060R 96-well plate”). The surface free energy at the inner bottom surface (cell-contacting surface, or culture surface) of each well of the 1060R 96-well plate was 34 mN/m. The surface free energy was measured using surface energy evaluation inks (Arcotest GmbH).
To each well of the […] 96-well plate was added 200 μL of 10 μg/mL human fibronectin (Corning Incorporated, product number: 356008) solution in sterile water and incubated at 37° C. for 2 hours to coat the inner bottom surface of each well with human fibronectin. Human fibronectin solution was removed from each well. […]
Supernatant samples before and after doxorubicin addition were measured for BNP level using Human BNP ELISA Kit (RayBiotech, product number: ELH-BNP).

COc1cccc2c1C(=O)c1c(O)c3c(c(O)c1C2=O)C[C@@](O)(C(=O)CO)C[C@@H]3O[C@H]1C[C@H](N)[C@H](O)[C@H](C)O1 [doxorubicin]
cell-secreted BNP concentration difference before and after addition of doxorubicin: BNP concentration difference increases with increasing doxorubicin concentration
